Target: T1, autotaxin (ATX) (Homo sapiens, UniProt Q13822)
T1 construct: conditioned medium from the human melanoma cell line, MDA-MB-4355, which endogenously expresses autotaxin; host or cells: MDA-MB-435S human melanoma cells; serum-free conditioned medium, concentrated 20-fold
Assay: Native Autotaxin Choline Release Assay
Assay type: biochemical
Conditions: autotaxin in conditioned medium from human melanoma cell line; choline released from LPC; read-out: MDA-MB-435S Assay IC50
Description: ATX activity is determined by measuring the amount of choline realeased from the substrate, lyosphophatidylcholine (LPC). […] After reaching confluency, the cells are washed twice with phosphate-buffered saline (PBS) then cultured for 48 hours in phenol-red free, serum-free DMEM containing sodium pyruvate. […] 100 μl of a color mix which contains 4.5 mM 4-aminoantipyrine, 2.7 mM N-ethyl-N-(2-hydroxy-3-sulfopropyl)-m-toluidine, 21 units/ml horseradish peroxidase and 3 units/ml choline oxidase in 50 mM Tris, pH 8, 4.5 mM MgCl2 is added and the incubation continued at 37° C. for 10 minutes before reading the absorbance at 555 nm. The concentration of released choline in the sample is determined from a choline standard curve and is equal to the concentration of LPA produced.

IC50 [µM]	SMILES
< 0.3	Cc1c(Sc2cccc(C(=O)O)c2)c2ccc(Cl)cc2n1-c1cnsc1 [Compound 1-42, 3-(6-Chloro-1-isothiazol-4-yl-2-methyl-1H-indol-3-ylsulfanyl)-benzoic acid]
< 0.3	CCn1cc(-n2c(C)c(Sc3cccc(C(=O)O)c3)c3ccc(Cl)cc32)cn1 [Compound 1-43, 3-[6-Chloro-1-(1-ethyl-1H-pyrazol-4-yl)-2-methyl-1H-indol-3-ylsulfanyl]-benzoic acid]
< 0.3	Cc1c(Sc2cccc(C(=O)O)c2)c2ccc(Cl)cc2n1-c1cnn(C(C)C)c1 [Compound 1-44, 3-[6-Chloro-1-(1-isopropyl-1H-pyrazol-4-yl)-2-methyl-1H-indol-3-ylsulfanyl]-benzoic acid]
< 0.3	Cc1c(Sc2cccc(CC(=O)O)c2)c2ccc(Cl)cc2n1-c1cnn(C)c1 [Compound 1-45, {3-[6-Chloro-2-methyl-1-(1-methyl-1H-pyrazol-4-yl)-1H-indol-3-ylsulfanyl]-phenyl}-acetic acid]
> 1	Cc1c(Sc2cc(C(=O)O)cc(C(F)(F)F)c2)c2ccc(Cl)cc2n1-c1cccnc1 [Compound 1-46, 3-(6-Chloro-2-methyl-1-pyridin-3-yl-1H-indol-3-ylsulfanyl)-5-trifluoromethyl-benzoic acid]
> 1	COc1ccc(CC(=O)O)cc1Sc1c(C)n(-c2cnn(C)c2)c2cc(Cl)ccc12 [Compound 1-47, {3-[6-Chloro-2-methyl-1-(1-methyl-1H-pyrazol-4-yl)-1H-indol-3-ylsulfanyl]-4-methoxy-phenyl}-acetic acid]
< 0.3	Cc1cncc(-n2c(C)c(Sc3cccc(CC(=O)O)c3)c3ccc(Cl)cc32)c1 [Compound 1-48, {3-[6-Chloro-2-methyl-1-(5-methyl-pyridin-3-yl)-1H-indol-3-ylsulfanyl]-phenyl}-acetic acid]
< 0.3	CCC(C(=O)O)c1cccc(Sc2c(C)n(-c3cccnc3)c3cc(Cl)ccc23)c1 (stereo not drawn) [Compound 1-49, 2-[3-(6-Chloro-2-methyl-1-pyridin-3-yl-1H-indol-3-ylsulfanyl)-phenyl]-butyric acid]
> 1	Cc1ccc(C(=O)O)cc1Sc1c(C)n(-c2cnn(C)c2)c2cc(Cl)ccc12 [Compound 1-50, 3-[6-Chloro-2-methyl-1-(1-methyl-1H-pyrazol-4-yl)-1H-indol-3-ylsulfanyl]-4-methyl-benzoic acid]
> 1	CCn1cc(-n2c(C)c(Sc3cc(Br)cc(C(=O)O)c3)c3ccc(Cl)cc32)cn1 [Compound 1-51, 3-Bromo-5-[6-chloro-1-(1-ethyl-1H-pyrazol-4-yl)-2-methyl-1H-indol-3-ylsulfanyl]-benzoic acid]
> 1	CCn1cc(-n2c(C)c(Sc3cc(C)cc(C(=O)O)c3)c3ccc(Cl)cc32)cn1 [Compound 1-52, 3-[6-Chloro-1-(1-ethyl-1H-pyrazol-4-yl)-2-methyl-1H-indol-3-ylsulfanyl]-5-methyl-benzoic acid]
> 1	Cc1c(Sc2cc(C(=O)O)cc(C(F)(F)F)c2)c2ccc(Cl)cc2n1-c1cnn(C)c1 [Compound 1-53, 3-[6-Chloro-2-methyl-1-(1-methyl-1H-pyrazol-4-yl)-1H-indol-3-ylsulfanyl]-5-trifluoromethyl-benzoic acid]
> 1	Cc1ccc(C(=O)O)cc1Sc1c(C)n(-c2cccnc2)c2cc(Cl)ccc12 [Compound 1-54, 3-(6-Chloro-2-methyl-1-pyridin-3-yl-1H-indol-3-ylsulfanyl)-4-methyl-benzoic acid]
< 0.3	Cc1c(Sc2cccc(C(=O)O)c2)c2ccc(Cl)cc2n1-c1cnn(CC(F)(F)F)c1 [Compound 1-55, 3-{6-Chloro-2-methyl-1-[1-(2,2,2-trifluoro-ethyl)-1H-pyrazol-4-yl]-1H-indol-3-ylsulfanyl}-benzoic acid]
< 0.3	Cc1cncc(-n2c(C)c(Sc3cccc(C(=O)O)c3)c3ccc(Cl)cc32)c1 [Compound 1-56, 3-[6-Chloro-2-methyl-1-(5-methyl-pyridin-3-yl)-1H-indol-3-ylsulfanyl]-benzoic acid]
< 0.3	CCCn1cc(-n2c(C)c(Sc3cccc(C(=O)O)c3)c3ccc(Cl)cc32)cn1 [Compound 1-57, 3-[6-Chloro-2-methyl-1-(1-propyl-1H-pyrazol-4-yl)-1H-indol-3-ylsulfanyl]-benzoic acid]
< 0.3	Cc1c(Sc2cccc(C(=O)O)c2)c2ccc(Cl)cc2n1-c1cnn(-c2ccccc2)c1 [Compound 1-58, 3-[6-Chloro-2-methyl-1-(1-phenyl-1H-pyrazol-4-yl)-1H-indol-3-ylsulfanyl]-benzoic acid]
< 0.3	Cc1c(Sc2cccc(C(=O)O)c2)c2ccc(Cl)cc2n1-c1cnn(Cc2ccccc2)c1 [Compound 1-59, 3-[1-(1-Benzyl-1H-pyrazol-4-yl)-6-chloro-2-methyl-1H-indol-3-ylsulfanyl]-benzoic acid]
< 0.3	Cc1nn(C)cc1-n1c(C)c(Sc2cccc(C(=O)O)c2)c2ccc(Cl)cc21 [Compound 1-60, 3-[6-Chloro-1-(1,3-dimethyl-1H-pyrazol-4-yl)-2-methyl-1H-indol-3-ylsulfanyl]-benzoic acid]
< 0.3	COc1c(Sc2c(C)n(-c3cnn(C)c3)c3cc(Cl)ccc23)cccc1C(=O)O [Compound 1-61, 3-[6-Chloro-2-methyl-1-(1-methyl-1H-pyrazol-4-yl)-1H-indol-3-ylsulfanyl]-2-methoxy-benzoic acid]
< 0.3	CCn1cc(-n2c(C)c(Sc3cccc(C(=O)O)c3OC)c3ccc(Cl)cc32)cn1 [Compound 1-62, 3-[6-Chloro-2-methyl-1-(1-ethyl-1H-pyrazol-4-yl)-1H-indol-3-ylsulfanyl]-2-methoxy-benzoic acid]
< 0.3	Cc1c(Sc2c(C)n(-c3cnn(C)c3)c3cc(Cl)ccc23)cccc1C(=O)O [Compound 1-63, 3-[6-Chloro-2-methyl-1-(1-methyl-1H-pyrazol-4-yl)-1H-indol-3-ylsulfanyl]-2-methyl-benzoic acid]
< 0.3	CCn1cc(-n2c(C)c(Sc3cccc(C(=O)O)c3C)c3ccc(Cl)cc32)cn1 [Compound 1-64, 3-[6-Chloro-2-methyl-1-(1-ethyl-1H-pyrazol-4-yl)-1H-indol-3-ylsulfanyl]-2-methyl-benzoic acid]
< 0.3	Cc1cncc(-n2c(C)c(Sc3cccc(C(=O)O)c3C)c3ccc(Cl)cc32)c1 [Compound 1-65, 3-[6-Chloro-2-methyl-1-(5-methyl-pyridin-3-yl)-1H-indol-3-ylsulfanyl]-2-methyl-benzoic acid]
< 0.3	Cc1cncc(-n2c(C)c(Sc3cccc(C(=O)O)c3F)c3ccc(Cl)cc32)c1 [Compound 1-66, 3-[6-Chloro-2-methyl-1-(5-methyl-pyridin-3-yl)-1H-indol-3-ylsulfanyl]-2-fluoro-benzoic acid]
< 0.3	CCn1cc(-n2c(C)c(Sc3cccc(C(=O)O)c3F)c3ccc(Cl)cc32)cn1 [Compound 1-67, 3-[6-Chloro-2-methyl-1-(1-ethyl-1H-pyrazol-4-yl)-1H-indol-3-ylsulfanyl]-2-fluoro-benzoic acid]
0.3 to 1	Cc1ccc(-n2c(C)c(Sc3cccc(C(=O)O)c3)c3ccc(Cl)cc32)nn1 [Compound 1-68, 3-[6-Chloro-2-methyl-1-(6-methyl-pyridazin-3-yl)-1H-indol-3-ylsulfanyl]-benzoic acid]

— patent US9000025B2, “Autotaxin inhibitors and uses thereof” (Amira Pharmaceuticals, Inc., priority 2010, dated 2015)
